This note sets out measurements from patent publication US6878751B1, “Administration of resveratrol to treat inflammatory respiratory disorders” (Imperial College of Science Technology and Medicine, priority 2000, dated 2005).

Series [1] has as its system IL-8 release, BEAS-2B cells. Description: IL-8 release (ELISA) in IL-1β stimulated BEAS-2B cells. The class given is cell-based. Particulars: Homo sapiens, 1 ng/ml IL-1β, read-out: EC50 for inhibition of the release of IL-8. On the procedure: The human airway epithelial cell line A549 may be employed to study resveratrol inhibition of the release of IL-8 (interleukin 8) and GM-CSF (granulocyte macrophage-colony stimulating factor) by a 1 ng/ml stimulation with IL-1β (interleukin 1β). A549 cells, BEAS-2B cells and 16HBE-16o^− cells were stimulated with 1 ng/ml levels of IL-1β in the presence of resveratrol.
Cells, including the A549 cells, were cultured in Dulbecco's modified Eagle's medium (DMEM) 10% (v/v) fetal calf serum (FCS), 100 μg/ml penicillin and 100 μg/ml streptomycin. IL-8 release was measured by commercially available ELISA kit (R&D Systems).
(In general: An ELISA detects its analyte on a solid surface through an enzyme-linked reagent.)

Series [2] has as its system patients resistant to existing pulmonary steroid therapy. Nature of the series: Resveratrol supplementation vs increasing steroid dose in steroid resistant asthma (Example 7). The class given is in vivo, human. Particulars: oral or pulmonary resveratrol added to inhaled steroid. The source says:
Instead of steroid naive chid asthmatic patients (children are chosen because of the increased gravity of systemic endocrine effects for children, but adults can be analogously studied) selected in Example 6, patients reesistant to existing pulmonary steroid therapy are selected. The study is otherwise analogous to the study in […], except that in the first two groups the oral or inhaled resveratrol supplements the inhaled steroid dose being administered prior to the beginning of the evaluation, while the third group has the dosage of inhaled steroid being administered prior to the study doubled. Alternatively the third group can receive oral prednisone in the appropriate systemic dose. The evaluation is otherwise performed identically to that in Example 6.

Series [3] relates to TRE dependent transcription. Description: TRE (AP-1) luciferase reporter in stably transfected A549 cells. Format: cell-based, human. The protocol: The expression of inflammatory genes was then evaluated in cells transformed with luciferase reporter genes containing sites for transcription factors (Tf, Tfs). The A549 cells were stably transfected by routine methods with luciferase reporters containing the transcription factors NF-κB, TRE (AP-1, TPA responsive element) and CRE (cAMP responsive element). Luciferase activity of cell lysates resuspended in […] cell lysis buffer mixed (40 mml resuspended lysate: 40 mml assay reagent) was measured using the Luciferase Assay System (Promega), with emitted light measured by a Turner DesignsTD-20/20 luminometer (Steptech Instruments Ltd., Stevenage, U.K.)
Background: In a reporter assay the amount or activity of a reporter protein is the signal.

The test system of the next series is COPD patients. Nature of the series: Pulmonary resveratrol clinical evaluation in COPD (Example 9). Format: in vivo, human. As to conditions: inhaled, 4, 8 or 20 mg/day. The protocol: Pulmonary administration of resveratrol for COPD may be evaluated by the method preceding in Example 8, using the inhaled doses specified in Example 4. Specifically the subgroups receive either 0 (placebo), 4, 8, or 20 mg/day resveratrol in inhaled doses of 0, 1, 2, or 5 mg administered 4 times daily for th duration of the study.

Series [4] has as its system Asthmatic steroid naive children. Description: Resveratrol substitution for glucocorticoids in asthmatic steroid naive children (Example 6). Format: in vivo, human. The protocol: Asthmatic steroid naive children with asthma disease severe enough to require chronic pulmonary steroid therapy are divided randomly and blindly into three groups. The duration of the study should be long, as pulmonary steroids for asthma are a chronic therapy, thus 1 to 2 years or more is optimal. The first group is treated with oral resveratrol, with the group subdivided randomly and blindly into four approximately equal subgroups that receive either 0 (placebo), 200, 2000, or 3000 mg/day resveratrol for about 12 to 24 months in oral doses of 0, 50, 500, or 750 mg administered 4 times daily for about 12 to 24 months. […]
The methods of the following references may be used in the evaluation of asthmatic disease: Wohl et al. (2000) N. Engl. […] Patients are medically monitored for clinical symptoms of asthma throughout the study, including frequency and severity of acute asthma attacks. […] In addition exhaled nitric oxide (NO) and carbon monoxide (CO) levels may be measured at more frequent intervals, such as every other week. Forced expiratory volume (FEV) and forced inspiratory volume (FIV) are also evaluated to measure airway patency as a direct measure of clinical morbidity and to determine correlation the histopathologic and other indicators of clinical disease, such as exhaled NO. […]

A further series deals with Patients with asthma. Description: Oral resveratrol clinical evaluation in asthma (Example 3). The class given is in vivo, human. Particulars: oral, 200, 2000 or 3000 mg/day, about six months. On the procedure:
Resveratrol is evaluated clinically for efficacy in treating asthma. The methods of the following references are generally used in the evaluation of asthmatic disease: Wohl et al. (2000) N. Engl. J. Med. 343(15):1113-4; Agertoft et al. (2000) N. Engl. J. Med. 343(15):1064-9. Patients with asthma are treated once or more per day with gelatin capsules containing resveratrol. Patients are divided randomly and blindly into four approximately equal groups that receive either 0 (placebo), 200, 2000, or 3000 mg/day resveratrol for about six months in oral doses of 0, 50, 500, or 750 mg administered 4 times daily for about six months. Patients are medically monitored for clinical symptoms of asthma throughout the study, including frequency and severity of acute asthma attacks. […] In addition exhaled nitric oxide (NO) and carbon monoxide (CO) levels may be measured at more frequent intervals, such as every other week. Forced expiratory volume (FEV) and forced inspiratory volume (FIV) are also evaluated to measure airway patency as a direct measure of clinical morbidity and to determine correlation the histopathologic and other indicators of clinical disease, such as exhaled NO Immunhistopathologic examination of lung tissue biopsy samples taken at the same intervals as the blood samples are also examined for histopathologic evidence of extent and histology of inflammation.

Regarding `Oc1ccc(/C=C/c2cc(O)cc(O)c2)cc1` [Resveratrol, 3,5,4′-trihydroxystilbene], the 50% effective concentration (EC50) in series [1] came out at 111 ± 2.9 µM; in series [3] (Homo sapiens, read-out: EC50 for inhibition of TRE dependent transcription), 7 ± 4 µM. Besides, the “systemic side effects compared with doubling steroid dosage” value in series [2] is “reduced systemic side effects compared with doubling steroid dosage”. In addition, the “efficacy as supplement to existing steroid therapy vs doubling inhaled steroid dose” value in series [2] (steroid resistant asthma) is recorded as “as or more effective as supplements to existing steroid therapy for antiinflammatory treatment than doubling inhaled steroid dose”. The “extent of inhibition of TRE dependent transcription” value in series [3] is listed as 85%. Moreover, the “efficacy in treating COPD” value with COPD patients is listed as “effective for treating COPD”. In addition, the “efficacy as substitute for inhaled steroids in treating asthma” value in series [4] (oral or pulmonary resveratrol vs pulmonary budenoside, 12 to 24 months) is given as “effective as substitutes for antiinflammatory treatment with inhaled steroids in treating asthma”. The “systemic side effects compared with inhaled glucocorticoids” value in series [4] (oral or pulmonary resveratrol, including suppression of growth) is on record as “reduced systemic side effects”. The “efficacy in treating asthma” value with Patients with asthma is given as “effective for treating asthma”.

A word on the EC50: it is the midpoint of the concentration-response curve.
